Data as given in US9464112B2, “Peptides having NF-κB inhibitory activity, or composition comprising same” (KNU-INDUSTRY COOPERATION FOUNDATION, priority 2012, dated 2016).

Columns and labels:
Assay type in all cases: cell-based
MMP-1 = MMP-1 expression in UVB-irradiated human dermal fibroblasts (Western blotting); conditions: peptide 0.1˜2 μM, UVB 312 nm 12.5 mJ/cm^2, 48 hours, dose-dependent
Excerpt: (§1) It is known that MMP-1, the expression of which is induced by ultraviolet stimulation in human dermal fibroblasts, degrades collagen fibers to facilitate cutaneous photoaging as well as wrinkle formation. Since the expression of MMP-1 is induced by NF-κB activation, we evaluate the inhibition thereof by the treatment of the peptides of the present invention, using human dermal fibroblasts (ATCC PCS-201-012, USA).
(§2) The human dermal fibroblasts was irradiated with UVB (312 nm, 12.5 mJ/cm^2) and then treated with the peptide of SEQ ID NO: 1 in the concentrations of 0.1˜2 μM. After 48 hours, the cell extracts were subject to the Western blotting assay so as to measure the expressions of MMP-1 and procollagen type-1. […] Therefore, it can be seen that the peptide of the present invention can inhibit ultraviolet radiation-induced cutaneous photoaging.

procollagen type-1 = test: Procollagen type-1 expression in UVB-irradiated human dermal fibroblasts (Western blotting); conditions: peptide 0.1˜2 μM, UVB 312 nm 12.5 mJ/cm^2, 48 hours, dose-dependent
Excerpt: as §1, §2

TNF-α = TNF-α expression in UVB-irradiated human keratinocytes HaCaT (Western blotting); conditions: UVB 312 nm 12.5 mJ/cm^2, 48 hours, peptide 0.1˜2 μM, dose-dependent
Procedure: (§3) We evaluated the inhibitory activities of the peptide of the present invention on expressions of the representative pro-inflammatory factors, i.e., TNF-α and IL-1α, the expressions of which are induced by ultraviolet stimulation. Specifically, the HaCaT cells (Molecular Biology Engineering Lab, Chemical & Biochemical Engineering, Dongguk University) were irradiated with UVB (312 nm, 12.5 mJ/cm^2) and then treated with the peptide of SEQ ID NO: 1 in the concentrations of 0.1˜2 μM. At this time, the control group was treated with dexamethasone (Dex) having the immunosuppressive function, at the irradiation of UVB. After 48 hours, the cell extracts were subject to the Western blotting assay so as to measure the expressions of TNF-α and IL-1α.

IL-1α = IL-1α expression in UVB-irradiated human keratinocytes HaCaT (Western blotting); conditions: UVB 312 nm 12.5 mJ/cm^2, 48 hours, peptide 0.1˜2 μM, dose-dependent
Procedure: as §3

PGE2 = PGE2 formation in UVB-irradiated human keratinocytes HaCaT (enzyme immunoassay); conditions: peptide 0.1˜2 μM, dose-dependent
Procedure: as §3
(§4) And also, the cell extracts were subject to the enzyme immunoassay so as to evaluate the inhibitory effects on formation of PGE2 (one of pro-inflammatory factors). For this assay, we also used the group treated with dexamethasone at the irradiation of UVB as a control group. In addition, the expression of COX-2 (which is a PGE2 formation-mediating enzyme) was measured through the Western blotting assay; and the results thereof are shown in FIG. 8.

COX-2 = COX-2 expression in UVB-irradiated human keratinocytes HaCaT (Western blotting); conditions: peptide 0.1˜2 μM, dose-dependent
Procedure: as §3, §4

Substance: Arg-Phe-Arg (RFR; Peptide fragment) [SEQ ID NO: 1, peptide fragment derived from the NF-κB p65 subunit]
- expression of MMP-1 increased by ultraviolet stimulation (MMP-1): reduced
- expression of procollagen type-1 (procollagen type-1): increased
- expression of TNF-α (TNF-α): reduced
- expression of IL-1α (IL-1α): reduced
- PGE2 formation increased by ultraviolet stimulation (PGE2): reduced
- expression of COX-2 (COX-2): reduced
